Results reported in US20260109732A1, “LIPID AMINES” (ModernaTX, Inc., priority 2021, published 2026).
Where a name gives a salt, the structure may show the parent alone.

How the values were obtained:
[1] = Encapsulation of mRNA nanoparticles with lipid amines using Ribogreen assay; assay type: physicochemical; conditions: CFTR mRNA nanoparticle with lipid amine
Experimental: (§1) Lipids are dissolved in ethanol at a concentration of 24 mg/mL and molar ratios of 49.0:11.2:39.3:0.5 (IL1:DSPC:cholesterol:PEG-DMG-2K) and mixed with the acidification buffer (45 mM acetate buffer at pH 4). The lipid solution and acidification buffer are mixed using a multi-inlet vortex mixer at a 3:7 volumetric ratio of lipid:buffer for mixer 1 and mixer 2 and a 1:3 volumetric ratio of lipid:buffer (25% ethanol) for mixer 3. After a 5 second residence time, the resulting nanoparticles are mixed with 55 mM sodium acetate at pH 5.6 at a volumetric ratio of 5:7 of nanoparticle:buffer. See Table 2a for mixing parameters. The resulting dilute nanoparticles are then buffer exchanged and concentrated using tangential flow filtration (TFF) into a final buffer containing 5 mM sodium acetate pH 5.0. Then a 70% sucrose solution in 5 mM acetate buffer at pH 5 is subsequently added.
(§2) The resulting nanoparticles at a lipid concentration of 7.33 mg/mL in 5 mM acetate (pH 5) and 75 g/L sucrose are mixed with mRNA (luciferease or CFTR) at a concentration of 0.625 mg/mL in 42.5 mM sodium acetate pH 5.0, with N:P of 4.93. The nanoparticle solution and nanoparticles are mixed using a multi-inlet vortex mixer at a 3:2 volumetric ratio of nanoparticle:mRNA. Once loaded with mRNA, these intermediate nanoparticles undergo a 300 second residence time prior addition of neutralization buffer containing 120 mM TRIS pH 8.12 at a volumetric ratio of 5:1 of nanoparticle:buffer.
(§3) For HeLa studies evaluating luciferase protein expression, PEG-DMG-2K dissolved in a 20 mM TRIS buffer (pH 7.5) is added to the neutralized intermediate nanoparticle solution at a ratio of 1:6, bringing the solution to the final molar ratios of IL1:DSPC:cholesterol:PEG-DMG-2K of 48.5:11.1:38.9:1.5%. This nanoparticle formulation is then modified with lipid amines. In a typical example, nanoparticle formulation at a concentration of 0.18 mg/mL mRNA and a 0.56 mL volume is modified with lipid amine SA50 (467.2 nmol) prepared in buffer containing 20 mM TRIS, 14.3 mM sodium acetate, 32 g/L sucrose and 140 mM NaCl-pH 7.5 at a volumetric ratio of 1:1 of nanoparticle:buffer.
(§4) For HeLa studies evaluating CFTR protein expression, the intermediate nanoparticle formulation (1 mL, 0.415 mg mRNA) is mixed with a buffer containing 20 mM TRIS (pH 7.5), 0.9 mg/mL PEG-DMG-2K and lipid amine SA50 (647.1 nmol) at a volumetric ratio of 6:1 of nanoparticle:buffer. The resulting nanoparticle suspension undergoes concentration using a centrifugal filtration device (100 kDa molecular weight cut-off) and is diluted in running buffer (20 mM TRIS, 14.3 mM sodium acetate, and 32 g/L sucrose, pH 7.5) with a 300 mM NaCl solution to a final buffer matrix containing 70 mM NaCl.
(§5) Both resulting nanoparticle suspensions are filtered through a 0.8/0.2 μm capsule filter and filled into glass vials at an mRNA strength of about 0.1-1 mg/mLBliophysical data (Diameter and PDI from DLS measurements and Encapsualtion using Ribogreen assay) for both luciferase and CFTR mRNA nanoparticles with lipid amines is shown in Tables 2c and d, respectively.

[2] = Diameter and PDI from DLS measurements of mRNA nanoparticles with lipid amines; assay type: physicochemical; conditions: CFTR mRNA nanoparticle with lipid amine
Experimental: as §1, §2, §3, §4, §5

HeLa cells = assay: CFTR Protein Expression Assay in HeLa Cells; assay type: cell-based, Human; conditions: LNPs encapsulating CFTR mRNA, N=4 wells; 5 h serum-free then 24 h; immunofluorescence vs PBS control
Experimental: as §4
Lipid nanoparticle compositions were prepared in a manner analogous to that in example 2. To evaluate LNP cellular uptake and protein expression In Vitro, HeLa cells from ATCC.org (ATCC CCL-2) are used. The cells are cultured in complete Minimum Essential Medium (MVEM) and are plated in 96 well Cell Carrier Ultra plate with PDL coated surface (PerkinElmer) prior to running an experiment.
Buffer control (PBS) and LNPs encapsulating cystic fibrosis transmembrane conductance regulator (CFTR) mRNA were dosed with MEM media in the absence of serum (N=4 replicate wells). LNP transfected cells were incubated for 5 h, followed by media removal and supplementation with complete MEM media. Cells were further incubated in complete MEM media overnight (24 h).
Following 24 hr incubation, the cells were fixed with PFA and processed for immunofluorescence (IF) using an anti-CFTR rabbit monoclonal antibody. Briefly, the cells were permeabilized with 0.5% TX-100 for 10 min, blocked with 3% bovine serum albumin (BSA)+PBST for 1 hr at room temperature, and incubated with primary anti-CFTR monoclonal antibody overnight at 4° C. Following primary antibody incubation, the cells were incubated with Alexa 488 conjugated secondary antibody for 30 mi and stained with DAPI and HCS CellMask Blue stain. Between different incubation steps the cells were either washed with PBS or PBST. Cells were imaged using Opera Phoenix spinning disk confocal microscope (PerkinElmer), and CFTR protein expression was detected using the 488 nm channel. The image analysis was performed in Harmony 4.9, with main analysis output being CFTR intensity per cell. The results shown in Table 3b show fold-change in CFTR signal intensity per cell compared to buffer (PBS) control (NA=not available).

Row | Structure (SMILES) | % Encapsulation (Ribogreen) [1] [%] | Diameter (nm) [2] [nm] | PDI [2] | Average fold-change in CFTR signal intensity per cell compared to buffer control ± standard deviation (HeLa cells) [fold-change]
1 | CC(C)CCC[C@@H](C)[C@H]1CC[C@H]2[C@@H]3CC=C4C[C@@H](OC(=O)CN(CCCN)CCCCNCCCN)CC[C@]4(C)[C@H]3CC[C@]12C (stereo in doubt) [SA65, ((3S,8S,9S,10R,13R,14S,17R)-10,13-dimethyl-17-((R)-6-methylheptan-2-yl)-2,3,4,7,8,9,10,11,12,13,14,15,16,17-tetradecahydro-1H-cyclopenta[a]phenanthren-3-yl N-(3-aminopropyl)-N-(4-((3-aminopropyl)amino)butyl)glycinatetetrahydrochloride] | 99.6 | 78.0 | 0.14 | 5.9 ± 0.5
2 | CC(C)CCC[C@@H](C)[C@H]1CC[C@H]2[C@@H]3CC=C4C[C@@H](OC(=O)CC(=O)N(CCCN(C)C)CCCN(C)C)CC[C@]4(C)[C@H]3CC[C@]12C.Cl.Cl [SA50, (3S,8S,9S,10R,13R,14S,17R)-10,13-Dimethyl-17-((R)-6-methylheptan-2-yl)-2,3,4,7,8,9,10,11,12,13,14,15,16,17-tetradecahydro-1H-cyclopenta[a]phenanthren-3-yl 3-(bis(3-(dimethylamino)propyl)amino)-3-oxopropanoate dihydrochloride] | 99.3 | 77.1 | 0.11 | 7.1 ± 0.4
3 | CC(C)CCC[C@@H](C)[C@H]1CC[C@H]2[C@@H]3CC=C4C[C@@H](OC(=O)CCCC(=O)N(CCCN(C)C)CCCN(C)C)CC[C@]4(C)[C@H]3CC[C@]12C.Cl.Cl [SA51, (3S,8S,9S,10R,13R,14S,17R)-10,13-Dimethyl-17-((R)-6-methylheptan-2-yl)-2,3,4,7,8,9,10,11,12,13,14,15,16,17-tetradecahydro-1H-cyclopenta[a]phenanthren-3-yl 5-(bis(3-(dimethylamino)propyl)amino)-5-oxopentanoate dihydrochloride] | 98.4 | 74.3 | 0.15 | 6.5 ± 0.4
4 | CC(C)CCC[C@@H](C)[C@H]1CC[C@H]2[C@@H]3CC=C4C[C@@H](OC(=O)CCCC(=O)N(CCCN)CCCCNCCCN)CC[C@]4(C)[C@H]3CC[C@]12C.Cl.Cl.Cl [SA58, (3S,8S,9S,10R,13R,14S,17R)-10,13-Dimethyl-17-((R)-6-methylheptan-2-yl)-2,3,4,7,8,9,10,11,12,13,14,15,16,17-tetradecahydro-1H-cyclopenta[a]phenanthren-3-yl 5-((3-aminopropyl)(4-((3-aminopropyl)amino)butyl)amino)-5-oxopentanoate trihydrochloride] | 99.6 | 71.6 | 0.10 | 4.5 ± 0.3
5 | CC(C)CCC[C@@H](C)[C@H]1CC[C@H]2[C@@H]3CC=C4C[C@@H](OC(=O)N(CCCCCCCCN(C)C)CCCN(C)C)CC[C@]4(C)[C@H]3CC[C@]12C [SA64, (3S,8S,9S,10R,13R,14S,17R)-10,13-dimethyl-17-((R)-6-methylheptan-2-yl)-2,3,4,7,8,9,10,11,12,13,14,15,16,17-tetradecahydro-1H-cyclopenta[a]phenanthren-3-yl (8-(dimethylamino)octyl)(3-(dimethylamino)propyl)carbamate] | 99.1 | 67.8 | 0.09 | 9.1 ± 0.6
6 | CC(C)CCC[C@@H](C)[C@H]1CC[C@H]2[C@@H]3CC=C4C[C@@H](OC(=O)N(CCCCOCCCN(C)C)CCCN(C)C)CC[C@]4(C)[C@H]3CC[C@]12C [SA67, (3S,8S,9S,10R,13R,14S,17R)-10,13-dimethyl-17-((R)-6-methylheptan-2-yl)-2,3,4,7,8,9,10,11,12,13,14,15,16,17-tetradecahydro-1H-cyclopenta[a]phenanthren-3-yl (4-(3-(dimethylamino)propoxy)butyl)(3-(dimethylamino)propyl)carbamate] | 99.2 | 72.8 | 0.10 | 7.7 ± 0.7
7 | CC(C)CCC[C@@H](C)[C@H]1CC[C@H]2[C@@H]3CC=C4C[C@@H](OC(=O)N(CCCCN(C)CCCN(C)C)CCCN(C)C)CC[C@]4(C)[C@H]3CC[C@]12C [SA68, (3S,8S,9S,10R,13R,14S,17R)-10,13-dimethyl-17-((R)-6-methylheptan-2-yl)-2,3,4,7,8,9,10,11,12,13,14,15,16,17-tetradecahydro-1H-cyclopenta[a]phenanthren-3-yl (3-(dimethylamino)propyl)(4-((3-(dimethylamino)propyl)(methyl)amino)butyl)carbamate] | 99.2 | 74.6 | 0.12 | 8.9 ± 0.4
8 | CC(C)CCC[C@@H](C)[C@H]1CC[C@H]2[C@@H]3CC=C4C[C@@H](OC(=O)[C@H](C)N(CCCN)CCCCNCCCN)CC[C@]4(C)[C@H]3CC[C@]12C [SA73, (3S,8S,9S,10R,13R,14S,17R)-10,13-Dimethyl-17-((R)-6-methylheptan-2-yl)-2,3,4,7,8,9,10,11,12,13,14,15,16,17-tetradecahydro-1H-cyclopenta[a]phenanthren-3-yl N-(3-aminopropyl)-N-(4-((3-aminopropyl)amino)butyl)alaninate trihydrochloride] | 100 | 92.8 | 0.16 | 9.4 ± 0.6
9 | CC(C)CCC[C@@H](C)[C@H]1CC[C@H]2[C@@H]3CC=C4C[C@@H](OC(=O)CCCC(=O)N(CCCCNCCC(C)(C)N)CCC(C)(C)N)CC[C@]4(C)[C@H]3CC[C@]12C [SA121, (3S,8S,9S,10R,13R,14S,17R)-10,13-dimethyl-17-((R)-6-methylheptan-2-yl)-2,3,4,7,8,9,10,11,12,13,14,15,16,17-tetradecahydro-1H-cyclopenta[a]phenanthren-3-yl 5-((3-amino-3-methylbutyl)(4-((3-amino-3-methylbutyl)amino)butyl)amino)-5-oxopentanoate trihydrochloride] | 97.4 | 79.2 | 0.14 | 16.2 ± 1.8
